In assay [1] the test system is male Brown Norway rats. The assay is described as follows: Experimental rat glaucoma (IOP elevation by hypertonic saline), optic nerve fiber counting. Format: in vivo. The settings on record: 10 mg/kg daily i.p. On the procedure: (§1) All experiments complied with the Association for Research in Vision and Ophthalmology Statement for the Use of Animals in Ophthalmic and Vision Research. 82 male Brown Norway rats (Rattus norvegicus), each weighing approximately 250 gm, were treated using procedures approved by the Animal Care Committee of the Johns Hopkins University School of Medicine. The rats were housed with a 12 hour light/12 hour dark cycle and fed ad libitum .
EXPERIMENTAL GLAUCOMA: Unilateral elevation of IOP was produced in 56 rats by microinjection of hypertonic saline into episcleral veins, following procedures described in Morrison, J. et al., IOVS (March 1998) 39:526-531. Beginning on the day of IOP elevation, the rats were treated daily with intraperitoneal injections of either a vehicle (23 rats with 50 mM HEPES-buffered saline) or a NAALADase inhibitor (11 rats with 10 mg/kg of 2-[[(2,3,4,5,6-pentafluorobenzyl)hydroxyphosphinyl]-methyl]pentanedioic acid (“Compound A”) and 22 rats with 10 mg/kg of 2-(3-sulfanylpropyl)pentanedioic acid (“Compound B”)). 11 saline treated rats, 11 Compound A treated rats and 11 Compound B treated rats were sacrificed at 8 weeks, and the remaining rats at 12 weeks, after initial IOP elevation.
(§2) OPTIC NERVE COUNTING: The rats were sacrificed by exsanguination under deep pentobarbital anesthesia. They were perfused through the heart with 2% paraformaldehyde/2% glutaraldehyde in 0.1 M phosphate buffer, pH 7.2, and the eyes with attached optic nerves were removed. A cross-section of the optic nerve from both experimental (glaucoma or transection) and control eyes was removed 1.5 mm posterior to the globe, 1 mm in thickness, and post-fixed in 2% osmium tetroxide in buffer. These were processed into epoxy resin, sectioned at 1 micron and stained with toluidine blue.
(§3) The area of the optic nerve cross-section was measured by outlining its outer border at 10×magnification on an image analysis system (Universal Imaging Corp., Westchester, Pa.) with Synsys digital camera and Metamorph software. Three area measurements were taken and the mean value was determined. To measure the density and fiber diameter distributions, images were captured with a 100× phase contrast objective from 10 different areas of each nerve. These were edited to eliminate non-neural objects and the size of each axon internal to the myelin sheath (its minimum diameter) and the density of axons/square mm were calculated for each image and nerve. The mean density was multiplied by total nerve area to yield fiber number for each nerve. The total fiber number in glaucoma or transection nerves was compared to the normal, fellow eye of each rat to yield a percent loss value. The number of axons counted among the 10 images was an approximately 20% sample of the 80-90,000 axons in normal rat nerves. The person measuring axon number was masked to the protocol conducted on the nerves.

Assay [2] deals with male Brown Norway rats. The experiment in a line: Optic nerve transection in rats, optic nerve fiber counting. Format: in vivo, Rattus norvegicus. The settings on record: for FIBER NUMBER ± SEM / PERCENT DIFFERENCE ± SEM: 10 mg/kg daily i.p.; for PERCENT DIFFERENCE ± SEM: transected vs normal eye. On the procedure:
as §1
OPTIC NERVE TRANSECTION: The optic nerve was transected unilaterally in 26 rats under intraperitoneal pentobarbital anesthesia. The conjunctiva was opened with scissors and the optic nerve exposed by traction on extraocular muscles. The transection was performed with microscissors 5 mm posterior to the globe, with specific attention to avoidance of injury to major ocular blood vessels. Immediately after transection, the retina was examined ophthalmoscopically to assure that the retinal arterial blood supply was not disrupted. The conjunctiva was closed with absorbable suture and the eye dressed with antibiotic ointment. Beginning on the day of transection, the rats were treated daily with intraperitoneal injections of either a vehicle (9 rats with 50 mM HEPES-buffered saline) or a NAALADase inhibitor (8 rats with 10 mg/kg of Compound A and 9 rats with 10 mg/kg of Compound B). 5 saline treated rats, 3 Compound A treated rats and 4 Compound B treated rats were sacrificed at 2 weeks, and the remaining rats at 4 weeks, after transection.
as §2, §3

The subject of the next assay is BB/W rats. The assay is described as follows: Retinal pathology in diabetic BB/W rats (basement membrane thickness, E/P ratio). It is filed as in vivo, rat. The settings on record: for BM THICKNESS (nm) ± SD (n = 3) / E/P RATIO (n = 8–10): diabetic rats. On the procedure: Four (4) groups of rats received daily insulin injections to maintain their glucose levels at about 350 mg/dl. Starting at the onset of hyperglycemia, NAALADase inhibitor 2-(3-sulfanylpropyl)-pentanedioic acid was administered daily for 6 months to one group of BB/W rats at a dose of 10 mg/kg and to a second group of BB/W rats at a dose of 30 mg/kg. A third group of BB/W rats and a fourth group of non-diabetic rats received daily vehicle treatment (50 mM Hepes buffered saline).
After six (6) months of NAALADase inhibitor or vehicle treatment, the rats were sacrificed and their eyes were removed. From each rat, one eye was processed for elastase digest while the other eye was processed for transmission electron microscopy (TEM) and basement membrane (BM) thickness.
Retinal digests were prepared using elastase on retinas as described in Layer, N. , Invest Ophthalmol Vis Sci (1993) 34:2097. Eyes were removed from recently killed BB/W rats (n=25) and age-matched transgenic controls (n=10). The retinas (n=35) were fixed at room temperature by immersing the whole eye (slit at limbus) in 4% (w/v) paraformaldehyde in 50 mmol/L Na-K phosphate buffer with 8% sucrose. The fixed retinas were rinsed in deionized water and were incubated for 3 minutes in a 37° C. agitating water bath in 40 units/mL elastase in Na-K phosphate buffer with 150 mmol/L NaCl and 5 mmol/L ethylenediamine tetraacetic acid (EDTA), pH 6.5. The tissues were washed overnight in 100 mmol/L Tris-HCL (pH 8.5) and then transferred to deionized water for removal of the loosened vitreous and digested neural elements by gentle agitation using the sides of closed forceps and the sides and ends of very fine brushes. After all loose tissues were removed, the retinas were incubated once more in fresh enzyme for 3 minutes and then subjected to a second overnight wash at room temperature in Tns-HCl buffer. On the third day, the retinas were again transferred to deionized water for additional removal of digested neural elements. The vascular network that was completely free of nonvascular elements was mounted flat by flotation in Ca^2+ and Mg^2+ free Dulbecco's PBS on siliconized slides (#S1308, Oncor, Gaithersburg, Md.). After air drying in a dust free environment, the mounts of the retinal microvasculature were stained using periodic acid Schiff reaction and hematoxylin counterstaining, as described in Luna, L., ed. Manual of Histologic Staining Methods of the Armed Forces Institute of Pathology (1968) McGraw-Hill, New York, N.Y. The preparations were then examined by light microscopy and photographed.
The stained and intact retinal whole mounts were coded and subsequent counting was done masked, as described in Cuthbertson, R., Invest Ophthalmol Vis Sci. (1986) 27:1659-1664).
Ten fields at ×100 magnification were counted for endothelial and pericyte cells using previously described morphologic criteria (see Kuwabara, T., Arch Ophthalmol. (1960) 64:904-911). In every sample, at least 200 cells were counted from the mid zone of the retina. Mean values for endothelial cell/pericyte (E/P) ratios were initially calculated in 3 retinas from each of the four (4) groups of rats.
Each eye was fixed in 4% glutaraldehyde and dissected free of sclera and choroids, then trimmed and postfixed in 1% osmium tetroxide. After dehydration and embedding, thin sections were stained with uranyl acetate and lead citrate. Initially, EM thickness of retinal capillaries from 3 non-diabetic rats receiving vehicle, 3 diabetic animals receiving 10 mg/kg 2-(3-sulfanylpropyl)-pentanedioic acid, and 3 diabetic rats receiving 30 mg/kg 2-(3-sulfanylpropyl)-pentanedioic acid were compared with 3 diabetic rats receiving a vehicle. At least 10 capillaries per eye from the inner nuclear and plexiform layers were photographed at a magnification of 10,000×. Exact magnification was determined for each set of negatives with a 28,800 line/inch calibration grid. Negatives were enlarged 3×. […]

The target of another assay is NAALADase (Rattus norvegicus, UniProt P70627). Particulars: NAAG as substrate of NAALADase; cited from earlier work.
Chain of NAALADase (P70627 whole entry): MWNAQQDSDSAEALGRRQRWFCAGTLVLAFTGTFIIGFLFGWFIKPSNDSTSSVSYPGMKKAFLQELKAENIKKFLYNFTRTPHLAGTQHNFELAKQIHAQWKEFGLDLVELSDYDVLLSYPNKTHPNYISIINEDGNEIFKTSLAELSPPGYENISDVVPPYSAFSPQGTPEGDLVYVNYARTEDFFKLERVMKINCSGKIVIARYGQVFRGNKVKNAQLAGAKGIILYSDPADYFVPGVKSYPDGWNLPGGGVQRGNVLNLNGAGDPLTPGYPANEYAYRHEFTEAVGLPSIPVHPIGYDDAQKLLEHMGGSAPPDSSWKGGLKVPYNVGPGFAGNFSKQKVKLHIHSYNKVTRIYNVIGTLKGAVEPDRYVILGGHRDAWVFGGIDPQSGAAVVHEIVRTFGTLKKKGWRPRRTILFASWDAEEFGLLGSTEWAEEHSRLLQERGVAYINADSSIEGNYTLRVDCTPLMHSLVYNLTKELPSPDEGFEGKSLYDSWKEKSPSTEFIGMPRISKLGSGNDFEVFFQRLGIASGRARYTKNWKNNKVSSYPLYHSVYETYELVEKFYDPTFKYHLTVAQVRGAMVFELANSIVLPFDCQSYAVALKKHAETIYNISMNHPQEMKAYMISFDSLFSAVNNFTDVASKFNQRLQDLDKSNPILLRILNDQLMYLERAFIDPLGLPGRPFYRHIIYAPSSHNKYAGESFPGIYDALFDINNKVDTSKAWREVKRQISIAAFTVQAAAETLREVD
Setting [3] is: 2 weeks survival after transection.
The mark [4] stands for this setting: 4 weeks survival after transection.
[5] abbreviates: 10 mg/kg daily for 6 months, 10 mg/kg.
Setting [6] is: 10 mg/kg daily for 6 months, listed as NAALADASE INHIBITOR, 10 mg/kg.
Setting [7] is: 30 mg/kg daily for 6 months, 30 mg/kg.
Where [8] appears, read: 30 mg/kg daily for 6 months, listed as NAAALADASE INHIBITOR, 30 mg/kg.
Where [9] appears, read: high dose (30 mg/kg), six months, vs diabetic vehicle.
The mark [10] stands for this setting: low dose (10 mg/kg), six months, vs diabetic vehicle.

Peptide text beside a SMILES is read from it.

By Km is commonly meant the concentration of substrate that gives half-maximal velocity.

With `O=C(O)CCC(CCCS)C(=O)O` (stereo not drawn) [Compound B, 2-(3-sulfanylpropyl)pentanedioic acid], the entries for the “FIBER NUMBER ± SEM” value in the assay with male Brown Norway rats [1] (8 week group), in the assay with male Brown Norway rats [2] (setting [3]) and in the assay with male Brown Norway rats [2] (setting [4]) were 80785 ± 2121, 19,550 ± 5,091 and 5,162 ± 2,509, respectively. Moreover, the “PERCENT DIFFERENCE ± SEM” value is on record as −0.82 ± 2.97% with male Brown Norway rats [1] (8 week group, fiber number glaucoma vs normal eye, positive = fewer fibers in glaucoma eye); 75.3 ± 6.6% with male Brown Norway rats [2] (setting [3]); 93.4 ± 3.1% with male Brown Norway rats [2] (setting [4]). Further, in the assay with male Brown Norway rats [1] (8 week group, glaucoma eye vs normal eye), the “IOP INTEGRAL DIFFERENCE ± SEM” value came out at 116 ± 33.2 mm Hg—days. The “FIBER NUMBER” value in the assay with male Brown Norway rats [1] (12 week group) was determined as 90504 ± 1718. Further, in the assay on male Brown Norway rats [1] (12 week group, fiber number glaucoma vs normal eye), the “PERCENT DIFFERENCE” value is given as −3.21 ± 2.86%. The “IOP INTEGRAL DIFFERENCE” value in the assay with male Brown Norway rats [1] (12 week group, glaucoma eye vs normal eye) was 109 ± 45.2 mm Hg—days. Besides, the “remaining axons relative to the saline-treated rats” value in the assay on male Brown Norway rats [2] (2 weeks after transection) is on record as “twice”. The “BM THICKNESS (nm) ± SD (n = 3)” value in the assay with BB/W rats (setting [5]) was 82.3±4.07 nm; in the assay with BB/W rats (setting [6]) it was 82.3 ± 4.07 nm; in the assay with BB/W rats (setting [7]) it was 71.7±4.07 nm; in the assay on BB/W rats (setting [8]) it was 71.7 ± 4.07 nm. Besides, the “E/P RATIO (n = 8–10)” value stood at 2.4±0.5 in the assay on BB/W rats (setting [5]), 2.4 ± 0.5 with BB/W rats (setting [6]), 1.9±0.4 in the assay on BB/W rats (setting [7]) and 1.9 ± 0.4 in the assay on BB/W rats (setting [8]). In addition, the “reduction in BM thickness” value in the assay with BB/W rats (setting [9]) was found to be 29.0%. The “reduction of E/P ratios” value is 37% with BB/W rats (setting [9]) and 20% in the assay on BB/W rats (setting [10]). Further, the “decrease in BM thickness” value in the assay on BB/W rats (setting [10]) is on record as 18.5%.

For `CC(=O)N[C@@H](CC(=O)O)C(=O)N[C@@H](CCC(=O)O)C(=O)O` [NAAG, N-acetyl-aspartyl-glutamate] (Ac-Asp-Glu-OH), the Km on NAALADase was 0.54 µM.

(Values after patent publication US7220780B2, “Naaladase inhibitors for treating retinal disorders and glaucoma” (Guilford Pharmaceuticals Inc., priority 2000, dated 2007).)
